This is an account of results in ChEMBL document CHEMBL5465560, “Selectivity Literature for EUbOPEN Chemogenomic Library” (2024).

In assay [1] the target is Hepatocyte growth factor receptor (Homo sapiens, UniProt P08581). The conditions noted are these: at 1 µM.
The target in assay [2] is Myosin-IIIa (Homo sapiens) (UniProt Q8NEV4). In words: Selectivity interaction (Ambit KINOMEscan and KiNATiv profiling in Jurkat cells) EUB0000090b MYO3A. It is filed as cell-based. The conditions noted are these: at 1 µM.
Assay [3] concerns the target Tyrosine-protein kinase Fyn (Homo sapiens) (UniProt P06241). Description: Selectivity interaction (Ambit KINOMEscan and KiNATiv profiling in Jurkat cells) EUB0000090b FYN. It is filed as cell-based. The conditions noted are these: at 1 µM.
The target in assay [4] is Vascular endothelial growth factor receptor 2 (Homo sapiens, UniProt P35968). In words: Selectivity interaction (KinomeScan (DiscoverX)) EUB0000655a KDR. The conditions noted are these: at 10 µM.
Assay [5] addresses T1, Dual serine/threonine and tyrosine protein kinase (Homo sapiens) (UniProt Q6XUX3).
T1 sequence (whole entry): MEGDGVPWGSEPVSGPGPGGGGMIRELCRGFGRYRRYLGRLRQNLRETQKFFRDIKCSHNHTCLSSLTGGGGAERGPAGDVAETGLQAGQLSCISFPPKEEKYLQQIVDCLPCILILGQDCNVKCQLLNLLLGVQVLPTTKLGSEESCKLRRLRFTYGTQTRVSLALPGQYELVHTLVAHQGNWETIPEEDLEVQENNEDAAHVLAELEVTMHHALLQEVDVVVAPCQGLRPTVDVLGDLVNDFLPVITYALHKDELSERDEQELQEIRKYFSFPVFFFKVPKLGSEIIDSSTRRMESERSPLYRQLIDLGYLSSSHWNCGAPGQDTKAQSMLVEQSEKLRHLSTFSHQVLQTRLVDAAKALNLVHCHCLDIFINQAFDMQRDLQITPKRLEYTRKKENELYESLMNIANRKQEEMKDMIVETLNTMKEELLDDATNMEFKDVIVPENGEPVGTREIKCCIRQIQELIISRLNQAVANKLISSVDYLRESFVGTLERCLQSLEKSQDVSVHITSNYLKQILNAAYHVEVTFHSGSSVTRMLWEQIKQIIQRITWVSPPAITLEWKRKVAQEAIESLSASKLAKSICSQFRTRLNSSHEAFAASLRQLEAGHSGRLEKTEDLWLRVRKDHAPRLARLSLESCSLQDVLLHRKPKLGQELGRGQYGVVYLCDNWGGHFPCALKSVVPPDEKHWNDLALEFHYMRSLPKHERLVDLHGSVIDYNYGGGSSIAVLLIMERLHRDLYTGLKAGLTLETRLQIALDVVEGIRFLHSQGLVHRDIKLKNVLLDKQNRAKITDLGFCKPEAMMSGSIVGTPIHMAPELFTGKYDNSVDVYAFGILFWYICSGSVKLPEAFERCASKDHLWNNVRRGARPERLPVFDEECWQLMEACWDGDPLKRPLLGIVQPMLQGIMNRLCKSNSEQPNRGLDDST
Description: Selectivity interaction (KinomeScan (DiscoverX)) EUB0000666a DSTYK. The conditions noted are these: at 10 µM.

Assay [6] has as its target T2, Serine/threonine-protein kinase Sgk1 (Homo sapiens) (UniProt O00141).
T2 sequence (whole entry): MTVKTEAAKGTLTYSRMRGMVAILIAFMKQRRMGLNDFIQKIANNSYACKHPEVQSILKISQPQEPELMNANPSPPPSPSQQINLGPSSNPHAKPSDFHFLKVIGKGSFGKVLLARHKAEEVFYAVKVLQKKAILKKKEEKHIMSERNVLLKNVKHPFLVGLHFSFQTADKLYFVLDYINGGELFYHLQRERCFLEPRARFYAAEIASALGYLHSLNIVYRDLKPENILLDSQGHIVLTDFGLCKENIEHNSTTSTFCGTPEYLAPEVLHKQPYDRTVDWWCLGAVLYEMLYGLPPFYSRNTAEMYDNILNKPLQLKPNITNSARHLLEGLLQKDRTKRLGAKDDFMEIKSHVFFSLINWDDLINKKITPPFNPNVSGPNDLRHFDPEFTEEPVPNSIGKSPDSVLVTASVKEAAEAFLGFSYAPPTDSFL
In words: Selectivity interaction (SelectScreen profiling (Invitrogen)) EUB0000607a SGK1. The conditions noted are these: at 2 µM.

Assay [7] concerns the target Ribosomal protein S6 kinase alpha-5 (Homo sapiens) (UniProt O75582). Description: Selectivity interaction (SelectScreen profiling (Invitrogen)) EUB0000607a RPS6KA5. The conditions noted are these: at 2 µM.
In assay [8] the target is T3, Mitogen-activated protein kinase 12 (Homo sapiens) (UniProt P53778).
T3 sequence (whole entry): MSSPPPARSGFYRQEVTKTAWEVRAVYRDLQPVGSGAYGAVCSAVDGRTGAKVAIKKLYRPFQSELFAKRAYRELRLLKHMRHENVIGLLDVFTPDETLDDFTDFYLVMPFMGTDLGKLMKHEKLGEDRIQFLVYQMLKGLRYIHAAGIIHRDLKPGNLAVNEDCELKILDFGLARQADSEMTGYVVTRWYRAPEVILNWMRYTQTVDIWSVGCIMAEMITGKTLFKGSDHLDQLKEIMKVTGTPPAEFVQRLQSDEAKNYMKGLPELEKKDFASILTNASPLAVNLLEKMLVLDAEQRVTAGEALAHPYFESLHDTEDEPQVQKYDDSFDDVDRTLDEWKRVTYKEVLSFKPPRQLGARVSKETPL
In words: Selectivity interaction (ActivX KiNativ screen (kinase selectivity in THP-1 cell lysates)) EUB0000639a MAPK12. In kind it is subcellular. The conditions noted are these: lysate.

Assay [9] addresses Mitotic checkpoint serine/threonine-protein kinase BUB1 (Homo sapiens, UniProt O43683).
Assay [10] concerns the target SRSF protein kinase 3 (Homo sapiens) (UniProt Q9UPE1). In words: Selectivity interaction (KinomeScan (DiscoverX)) EUB0001619a SRPK3. The conditions noted are these: at 1 µM.
The target of assay [11] is Tyrosine-protein kinase ABL1 (Homo sapiens, UniProt P00519). Description: Selectivity interaction (ActivX KiNativ screen (ex vivo kinase selectivity in human PBMCs)) EUB0001619a ABL1. It is filed as cell-based. The conditions noted are these: PBMC, at 1 µM.
Assay [12] addresses Tyrosine-protein kinase Yes (Homo sapiens) (UniProt P07947). Description: Selectivity interaction (KinomeScan (DiscoverX)) EUB0001619a YES1. The conditions noted are these: at 1 µM.
In assay [13] the target is Tyrosine-protein kinase SYK (Homo sapiens, UniProt P43405). In words: Selectivity interaction (ActivX KiNativ screen (ex vivo kinase selectivity in human PBMCs)) EUB0001619a SYK. In kind it is cell-based. The conditions noted are these: PBMC, at 1 µM.

Bounds are passed on as bounds.

Chain of Tyrosine-protein kinase Fyn (Homo sapiens) (P06241 2-537 limits assumed): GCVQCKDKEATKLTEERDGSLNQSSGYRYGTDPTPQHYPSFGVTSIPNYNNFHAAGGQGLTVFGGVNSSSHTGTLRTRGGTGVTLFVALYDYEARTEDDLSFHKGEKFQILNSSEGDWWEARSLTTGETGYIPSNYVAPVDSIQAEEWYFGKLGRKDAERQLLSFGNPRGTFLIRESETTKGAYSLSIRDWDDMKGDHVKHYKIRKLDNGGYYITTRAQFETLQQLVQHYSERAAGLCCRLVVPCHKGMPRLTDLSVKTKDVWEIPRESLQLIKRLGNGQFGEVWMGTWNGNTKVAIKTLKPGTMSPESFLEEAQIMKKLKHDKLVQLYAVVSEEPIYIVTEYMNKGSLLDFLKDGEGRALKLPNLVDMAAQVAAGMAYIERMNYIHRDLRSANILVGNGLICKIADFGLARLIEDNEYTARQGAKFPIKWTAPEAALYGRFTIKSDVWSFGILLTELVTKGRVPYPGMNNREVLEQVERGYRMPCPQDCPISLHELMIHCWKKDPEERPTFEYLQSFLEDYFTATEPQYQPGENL
Chain of Hepatocyte growth factor receptor (P08581 whole entry): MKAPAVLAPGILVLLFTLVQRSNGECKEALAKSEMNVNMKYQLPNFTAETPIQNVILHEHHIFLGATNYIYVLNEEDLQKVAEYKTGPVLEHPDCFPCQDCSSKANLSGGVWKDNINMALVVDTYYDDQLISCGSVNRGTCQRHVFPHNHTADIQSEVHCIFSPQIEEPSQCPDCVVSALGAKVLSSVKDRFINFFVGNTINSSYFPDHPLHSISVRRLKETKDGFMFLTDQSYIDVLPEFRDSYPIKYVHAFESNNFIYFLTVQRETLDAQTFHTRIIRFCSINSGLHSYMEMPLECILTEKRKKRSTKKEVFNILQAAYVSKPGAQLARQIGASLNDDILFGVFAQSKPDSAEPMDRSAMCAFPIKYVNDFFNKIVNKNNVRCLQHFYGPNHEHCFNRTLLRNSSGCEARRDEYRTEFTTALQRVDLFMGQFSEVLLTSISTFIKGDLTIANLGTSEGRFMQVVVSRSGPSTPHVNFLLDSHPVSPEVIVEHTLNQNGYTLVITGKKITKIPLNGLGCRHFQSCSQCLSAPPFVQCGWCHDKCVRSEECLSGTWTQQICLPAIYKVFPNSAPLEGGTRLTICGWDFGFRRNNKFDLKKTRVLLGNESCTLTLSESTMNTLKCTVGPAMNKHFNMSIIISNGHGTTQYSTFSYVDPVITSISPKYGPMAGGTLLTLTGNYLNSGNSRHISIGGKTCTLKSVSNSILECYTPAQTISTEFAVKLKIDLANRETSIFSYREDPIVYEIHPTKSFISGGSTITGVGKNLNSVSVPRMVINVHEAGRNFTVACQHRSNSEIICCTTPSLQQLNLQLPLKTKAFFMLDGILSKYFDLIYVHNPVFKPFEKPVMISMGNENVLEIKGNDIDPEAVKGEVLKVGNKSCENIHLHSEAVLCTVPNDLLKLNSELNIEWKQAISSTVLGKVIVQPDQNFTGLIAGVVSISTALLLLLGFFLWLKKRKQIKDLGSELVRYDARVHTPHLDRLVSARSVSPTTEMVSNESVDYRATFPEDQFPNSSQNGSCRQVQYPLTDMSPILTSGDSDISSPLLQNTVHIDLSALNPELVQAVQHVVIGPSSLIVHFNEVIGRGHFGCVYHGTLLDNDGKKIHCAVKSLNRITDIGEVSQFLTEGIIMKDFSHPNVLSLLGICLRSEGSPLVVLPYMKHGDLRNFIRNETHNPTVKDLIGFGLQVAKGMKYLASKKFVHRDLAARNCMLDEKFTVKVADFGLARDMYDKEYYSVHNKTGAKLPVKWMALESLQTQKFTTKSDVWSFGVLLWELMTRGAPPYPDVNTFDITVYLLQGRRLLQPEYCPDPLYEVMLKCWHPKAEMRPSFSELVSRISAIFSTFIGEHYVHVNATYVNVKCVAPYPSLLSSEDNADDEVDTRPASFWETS
Chain of Tyrosine-protein kinase ABL1 (P00519 whole entry): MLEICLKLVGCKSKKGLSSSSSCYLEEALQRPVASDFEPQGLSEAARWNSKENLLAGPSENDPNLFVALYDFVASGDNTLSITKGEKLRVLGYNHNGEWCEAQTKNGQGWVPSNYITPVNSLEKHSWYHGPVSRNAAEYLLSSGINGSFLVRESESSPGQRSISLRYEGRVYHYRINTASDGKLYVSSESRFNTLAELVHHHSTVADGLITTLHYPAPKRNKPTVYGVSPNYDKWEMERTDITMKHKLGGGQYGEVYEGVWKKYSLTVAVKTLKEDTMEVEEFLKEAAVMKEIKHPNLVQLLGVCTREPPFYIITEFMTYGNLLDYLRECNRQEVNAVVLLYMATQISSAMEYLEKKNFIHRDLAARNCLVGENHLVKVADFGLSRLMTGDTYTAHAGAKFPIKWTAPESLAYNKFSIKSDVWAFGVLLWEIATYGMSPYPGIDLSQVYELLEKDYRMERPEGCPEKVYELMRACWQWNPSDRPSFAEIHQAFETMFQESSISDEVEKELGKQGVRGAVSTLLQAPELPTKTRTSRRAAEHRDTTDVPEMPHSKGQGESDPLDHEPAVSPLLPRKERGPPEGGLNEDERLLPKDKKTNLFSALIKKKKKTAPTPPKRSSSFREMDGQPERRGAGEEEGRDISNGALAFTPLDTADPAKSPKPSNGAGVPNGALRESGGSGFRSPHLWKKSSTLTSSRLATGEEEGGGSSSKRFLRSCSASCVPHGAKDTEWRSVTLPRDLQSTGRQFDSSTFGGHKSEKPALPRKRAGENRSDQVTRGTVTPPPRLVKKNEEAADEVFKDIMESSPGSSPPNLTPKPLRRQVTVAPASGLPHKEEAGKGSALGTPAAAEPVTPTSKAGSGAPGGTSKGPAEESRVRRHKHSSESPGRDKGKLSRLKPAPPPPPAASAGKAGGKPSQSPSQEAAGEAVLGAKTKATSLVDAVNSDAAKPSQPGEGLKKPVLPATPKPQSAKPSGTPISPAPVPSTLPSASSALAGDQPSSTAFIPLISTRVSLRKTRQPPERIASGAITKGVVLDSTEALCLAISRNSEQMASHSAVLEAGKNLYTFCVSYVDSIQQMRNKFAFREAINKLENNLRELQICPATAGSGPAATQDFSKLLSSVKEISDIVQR
Chain of Tyrosine-protein kinase Yes (Homo sapiens) (P07947 2-543 limits assumed): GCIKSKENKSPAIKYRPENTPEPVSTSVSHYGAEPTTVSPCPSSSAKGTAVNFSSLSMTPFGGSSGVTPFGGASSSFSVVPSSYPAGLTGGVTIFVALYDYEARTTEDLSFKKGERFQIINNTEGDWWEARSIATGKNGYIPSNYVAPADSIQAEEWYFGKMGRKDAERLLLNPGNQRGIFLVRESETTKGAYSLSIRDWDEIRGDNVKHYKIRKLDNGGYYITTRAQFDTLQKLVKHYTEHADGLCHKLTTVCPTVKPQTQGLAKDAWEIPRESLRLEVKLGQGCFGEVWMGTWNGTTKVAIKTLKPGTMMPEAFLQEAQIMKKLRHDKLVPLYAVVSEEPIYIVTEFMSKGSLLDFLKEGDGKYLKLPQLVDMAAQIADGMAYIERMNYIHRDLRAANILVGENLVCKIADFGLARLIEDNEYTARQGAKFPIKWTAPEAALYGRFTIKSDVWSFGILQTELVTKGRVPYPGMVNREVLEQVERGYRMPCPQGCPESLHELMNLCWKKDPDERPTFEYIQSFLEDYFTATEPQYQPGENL
Chain of SRSF protein kinase 3 (Homo sapiens) (Q9UPE1 whole entry): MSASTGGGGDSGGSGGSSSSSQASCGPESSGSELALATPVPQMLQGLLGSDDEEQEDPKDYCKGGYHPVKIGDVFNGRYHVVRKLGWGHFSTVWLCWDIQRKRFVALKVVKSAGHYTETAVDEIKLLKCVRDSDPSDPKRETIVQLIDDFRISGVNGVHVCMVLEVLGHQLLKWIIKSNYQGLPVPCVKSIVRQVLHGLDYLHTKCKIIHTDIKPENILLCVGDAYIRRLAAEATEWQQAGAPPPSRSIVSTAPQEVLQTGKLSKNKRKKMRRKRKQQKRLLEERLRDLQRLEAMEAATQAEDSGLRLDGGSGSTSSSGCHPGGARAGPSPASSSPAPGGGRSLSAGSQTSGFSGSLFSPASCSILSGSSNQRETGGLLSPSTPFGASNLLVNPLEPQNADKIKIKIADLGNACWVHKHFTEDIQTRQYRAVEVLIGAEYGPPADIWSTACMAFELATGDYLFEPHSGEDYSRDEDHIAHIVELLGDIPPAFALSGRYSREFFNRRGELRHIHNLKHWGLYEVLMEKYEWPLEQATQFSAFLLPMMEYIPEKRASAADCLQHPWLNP
Chain of Ribosomal protein S6 kinase alpha-5 (Homo sapiens) (O75582 whole entry, looked up): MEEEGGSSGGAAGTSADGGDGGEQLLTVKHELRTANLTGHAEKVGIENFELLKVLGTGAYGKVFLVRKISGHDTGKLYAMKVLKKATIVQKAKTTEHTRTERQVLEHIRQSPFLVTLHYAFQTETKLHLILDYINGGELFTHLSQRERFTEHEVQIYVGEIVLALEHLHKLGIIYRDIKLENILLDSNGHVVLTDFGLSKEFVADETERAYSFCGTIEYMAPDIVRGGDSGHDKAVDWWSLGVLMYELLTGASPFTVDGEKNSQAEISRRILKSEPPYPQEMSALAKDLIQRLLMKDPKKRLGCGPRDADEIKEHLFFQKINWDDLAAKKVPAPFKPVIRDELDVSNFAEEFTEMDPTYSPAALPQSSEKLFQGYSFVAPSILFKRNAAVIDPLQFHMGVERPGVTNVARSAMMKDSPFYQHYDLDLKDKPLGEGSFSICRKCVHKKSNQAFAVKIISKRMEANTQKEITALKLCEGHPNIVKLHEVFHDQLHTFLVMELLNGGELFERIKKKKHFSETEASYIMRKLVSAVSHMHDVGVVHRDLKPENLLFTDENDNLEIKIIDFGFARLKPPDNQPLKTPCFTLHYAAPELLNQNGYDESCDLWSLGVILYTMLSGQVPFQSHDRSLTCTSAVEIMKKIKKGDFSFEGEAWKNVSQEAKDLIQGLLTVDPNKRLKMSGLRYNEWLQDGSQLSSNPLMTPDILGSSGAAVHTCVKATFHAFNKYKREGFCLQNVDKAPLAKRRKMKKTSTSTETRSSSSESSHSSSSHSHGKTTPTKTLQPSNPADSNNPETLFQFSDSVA

For the molecule `Cc1ccc(-c2ccc3c(ccc4sc5c(c43)NC[C@@H](C)NC5=O)n2)cn1`, the % of inhibition in assay [1] was 41%.

Regarding `CN(C)C/C=C/C(=O)Nc1ccc(C(=O)N2CCCC(Nc3ncc(Cl)c(-c4c[nH]c5ccccc45)n3)C2)cc1` (configuration not stated), the % of control in [2] came to 100%; in [3] it was 61%.

On to `CN(C)CCOc1ccc(-c2nc(-c3ccncc3)c(-c3ccc4c(c3)CC/C4=N\O)[nH]2)cc1`, for which the % of control in assay [4] came to 100%.

`O=C(NOC[C@H](O)CO)c1ccc(F)c(F)c1Nc1ccc(I)cc1F` had a % of control in [5] of 100%.

As for `CNC(=O)Nc1ccc(-c2nc(N3CC4CCC(C3)O4)c3cnn(C4CCC5(CC4)OCCO5)c3n2)cc1`, the % of inhibition in assay [6] was -2%; in assay [7] it was 1%.

On to `CC[C@@H]1[C@H](F)C(=O)N[C@@H]1COc1nccc2cc(C(N)=O)c(OC)cc12` [ZIMLOVISERTIB], for which the % of inhibition in [8] (at 0.01 µM) is -4.4%; in assay [8] (at 0.04 µM), 6%; in assay [8] (at 0.2 µM), -3.6%; in assay [8] (at 1 µM), 7.4%; in assay [8] (at 5 µM), 20.3%.

One may read the IC50 as the concentration at which inhibition is half-maximal. Lower therefore signals greater potency. For the molecule `CCc1cccc(CC)c1NC(=O)c1nn(C)c2c1CCc1cnc(Nc3ccc(C(=O)NC4CCN(C)CC4)cc3OC(F)(F)F)nc1-2`, the IC50 in assay [9] was more than 10 µM.

As to `N#Cc1cccc(-c2c[nH]c3ncnc(N4CCOCC4)c23)c1`, the results for the % of control in assay [10] and in assay [12] were 27% and 95%, respectively. Also, the % of inhibition in assay [11] is -1%; in assay [13] it was 6%.
